Article PMC3189488 (British journal of haematology, 2010)

How the values were obtained:
HL cell lines = test: Combination of MGCD0103 with proteasome inhibitors in HL cell lines; format: cell-based, human; settings: 48 h, combination index <1 indicates synergy
human HDAC6 = molecular target: T1, human HDAC6 (Homo sapiens, UniProt Q9UBN7); test: HDAC enzyme assay in vitro, HDAC6; format: biochemical; settings: cell-free, purified enzyme; Fig S1
T1 sequence (Q9UBN7 1-1215): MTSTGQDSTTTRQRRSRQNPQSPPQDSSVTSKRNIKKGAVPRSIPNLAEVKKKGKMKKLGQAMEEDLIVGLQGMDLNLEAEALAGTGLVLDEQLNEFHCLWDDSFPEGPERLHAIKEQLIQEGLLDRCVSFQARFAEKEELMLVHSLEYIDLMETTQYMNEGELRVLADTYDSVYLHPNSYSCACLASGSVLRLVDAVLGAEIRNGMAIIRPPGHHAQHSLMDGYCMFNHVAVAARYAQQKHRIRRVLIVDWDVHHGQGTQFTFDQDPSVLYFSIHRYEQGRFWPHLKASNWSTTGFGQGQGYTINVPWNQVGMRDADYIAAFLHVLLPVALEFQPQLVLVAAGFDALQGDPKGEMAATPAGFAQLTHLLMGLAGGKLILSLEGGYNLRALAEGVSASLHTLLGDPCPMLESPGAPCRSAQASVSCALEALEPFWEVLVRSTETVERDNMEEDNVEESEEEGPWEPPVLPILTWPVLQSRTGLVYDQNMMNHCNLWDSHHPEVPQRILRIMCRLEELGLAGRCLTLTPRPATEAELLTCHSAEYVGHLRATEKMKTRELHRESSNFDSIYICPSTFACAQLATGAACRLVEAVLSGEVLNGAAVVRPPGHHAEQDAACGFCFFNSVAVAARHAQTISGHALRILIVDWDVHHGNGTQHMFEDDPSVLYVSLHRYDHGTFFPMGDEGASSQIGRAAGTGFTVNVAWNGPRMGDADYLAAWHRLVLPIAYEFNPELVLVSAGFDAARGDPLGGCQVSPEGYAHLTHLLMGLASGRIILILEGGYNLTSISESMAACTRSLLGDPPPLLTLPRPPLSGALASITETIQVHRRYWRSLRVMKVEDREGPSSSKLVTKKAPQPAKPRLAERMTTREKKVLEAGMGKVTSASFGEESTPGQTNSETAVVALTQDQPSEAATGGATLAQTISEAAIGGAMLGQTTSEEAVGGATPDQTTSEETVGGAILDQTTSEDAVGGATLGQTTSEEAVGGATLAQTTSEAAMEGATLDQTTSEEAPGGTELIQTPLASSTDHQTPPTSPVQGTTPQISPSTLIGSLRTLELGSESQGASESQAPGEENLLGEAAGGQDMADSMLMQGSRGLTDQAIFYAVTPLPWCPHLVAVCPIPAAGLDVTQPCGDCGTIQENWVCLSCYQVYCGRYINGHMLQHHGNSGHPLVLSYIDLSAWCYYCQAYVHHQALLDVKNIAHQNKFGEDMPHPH

HD-LM2 cells = test: Apoptosis by annexin-V/propidium iodide FACS, HD-LM2; format: cell-based, human; settings: 1 μmol/l, 48 h
L428 cells = test: Apoptosis by annexin-V/propidium iodide FACS, L428; format: cell-based, human; settings: 1 μmol/l, 48 h
KM-H2 cells = test: Apoptosis by annexin-V/propidium iodide FACS, KM-H2; format: cell-based, human; settings: 1 μmol/l, 48 h
TNF-α = TNF-α secretion in HL cell supernatants by ELISA; format: cell-based, human; settings: within 24 h of incubation
HDAC6 = settings: ref Fournel et al, 2008; Gloghini et al, 2009; cited from earlier work
human HDAC8 = molecular target: T2, human HDAC8 (Homo sapiens, UniProt Q9BY41); test: HDAC enzyme assay in vitro, HDAC8; settings: cell-free, purified enzyme
T2 sequence (Q9BY41 1-377): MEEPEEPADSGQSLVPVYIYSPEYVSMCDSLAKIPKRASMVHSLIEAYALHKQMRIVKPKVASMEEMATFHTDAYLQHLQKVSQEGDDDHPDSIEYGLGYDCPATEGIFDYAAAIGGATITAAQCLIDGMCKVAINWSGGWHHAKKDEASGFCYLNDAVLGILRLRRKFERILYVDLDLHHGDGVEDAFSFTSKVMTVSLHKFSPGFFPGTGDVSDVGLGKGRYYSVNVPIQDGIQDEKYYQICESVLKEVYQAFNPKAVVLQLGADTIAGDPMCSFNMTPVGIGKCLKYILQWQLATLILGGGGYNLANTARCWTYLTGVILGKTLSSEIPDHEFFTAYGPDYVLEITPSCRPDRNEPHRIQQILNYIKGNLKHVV

[1] = molecular target: human HDAC3 with human NcoR2 (Homo sapiens, UniProt O15379); test: HDAC enzyme assay in vitro, HDAC3; settings: cell-free, purified enzyme
Chain of human HDAC3 with human NcoR2 (O15379 whole entry): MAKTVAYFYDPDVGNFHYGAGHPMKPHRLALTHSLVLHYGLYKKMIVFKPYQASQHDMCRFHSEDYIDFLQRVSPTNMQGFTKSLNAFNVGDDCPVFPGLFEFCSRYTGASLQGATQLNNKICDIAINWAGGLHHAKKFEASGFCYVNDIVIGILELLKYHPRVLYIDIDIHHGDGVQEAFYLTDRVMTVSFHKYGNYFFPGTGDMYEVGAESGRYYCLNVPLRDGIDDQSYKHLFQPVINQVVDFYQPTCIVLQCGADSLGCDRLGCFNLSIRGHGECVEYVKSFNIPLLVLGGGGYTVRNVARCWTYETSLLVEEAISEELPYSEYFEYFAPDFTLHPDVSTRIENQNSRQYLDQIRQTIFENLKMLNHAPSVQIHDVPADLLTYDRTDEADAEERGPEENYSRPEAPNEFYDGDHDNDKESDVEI
Chain of human HDAC3 with human NcoR2 (Q9Y618 395-489 partner limits assumed): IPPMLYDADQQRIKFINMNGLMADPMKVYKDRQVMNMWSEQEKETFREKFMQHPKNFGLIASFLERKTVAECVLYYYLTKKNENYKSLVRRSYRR

NF-kB = test: p65 NF-kB nuclear translocation by Western blot; format: cell-based, human; settings: bortezomib 20 nmol/l with MGCD0103 1 μmol/l, 24 h
HDACs 1-10 = test: HDAC enzyme assay in vitro, purified HDAC 1-10 isoforms; settings: positive control

Molecule	combination effect with MGCD0103 (HL cell lines)	percentage of apoptotic cells (HD-LM2 cells) [%]	percentage of apoptotic cells (L428 cells) [%]	percentage of apoptotic cells (KM-H2 cells) [%]	inhibition of HDAC8 activity (human HDAC8)	further results
C[C@@]12OC(=O)[C@]1([C@@H](O)[C@@H]1C=CCCC1)NC(=O)[C@@H]2CCCl [NPI0052]	synergistic activity					
Nc1ccccc1NC(=O)c1ccc(CNc2nccc(-c3cccnc3)n2)cc1 [MGCD0103]		59	72	69	also inhibited the activity	effect on HDAC6 activity (human HDAC6): no effect; TNF-α levels in supernatants (TNF-α): profoundly increased; effect on HDAC6 (HDAC6): no effect
O=C(CCCCCCC(=O)Nc1ccccc1)NO [vorinostat, suberoylanilide hydroxamic]		21	15	13.8	had activity	inhibition of HDAC3 activity [1]: had activity
CC(C)C[C@H](NC(=O)[C@H](Cc1ccccc1)NC(=O)c1cnccn1)B(O)O [bortezomib]	synergistic antiproliferative effect					effect on MGCD0103-induced NF-kB activation (NF-kB): inhibited MGCD0103-induced NF-kB activation
Trichostatin A [Trichostatin-A]						potency against HDACs 1-10 compared with MGCD0103 and vorinostat (HDACs 1-10): higher potency
